Tested on: thawed bovine sperm
Procedure: Semen collected from a breeding bull kept at Livestock Improvement Association of Japan was diluted with primary and secondary diluents prepared in the same manner as in Example 1 except that 30 g of fructo-oligosaccharide or 30 g of isomalto-oligosaccharide was added. The semen was diluted so that the final concentration of glycerin was 7%, thereby obtaining diluted sperm solutions. As a control group with soybean lecithin and devoid of fructo-oligosaccharide and isomalto-oligosaccharide, semen was diluted with the diluent described in Example 1 of Patent Document 4, the diluent having a final glycerin concentration of 7%. As a control group with egg yolk and devoid of fructo-oligosaccharide and isomalto-oligosaccharide, semen was diluted with the diluent described in Patent Document 1, produced and sold by Livestock Improvement Association of Japan for preparation of frozen semen, the diluent having a final glycerin concentration of 6.5%. Semen was diluted with each of these diluents so that the diluted semen contained 80 million sperm per ml. The second diluent was added to the primarily diluted semen at a ratio of 1:1 so that the semen contained 40 million sperm per ml. Straws for artificial insemination were then prepared by conventional methods. Cryopreservation was performed using liquid nitrogen by conventional methods. […]

For fructo-oligosaccharide, the “adverse influence on the oocyte penetration ability of sperm and the development ability of fertilized embryo” value was “substantially no adverse influence”.

In the case of isomalto-oligosaccharide, the “adverse influence on the oocyte penetration ability of sperm and the development ability of fertilized embryo” value was “substantially no adverse influence”.
